Laboratory results from patent US10294202B2, “Pyrrolidinones as herbicides” (FMC Corporation, priority 2013, dated 2019).

Key:
[1] = system: nutsedge, yellow; assay: Test C pre-/postemergence herbicide test; assay type: in vivo, Cyperus esculentus
Outline: (§1)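 Herbicidal effect was judged by eye 13 to 15 days after treatment in the greenhouse, using a 0–100 scale against controls. Chemicals in a non-phytotoxic solvent with surfactant were sprayed onto planted loam/sand soil or onto plants 2 to 18 cm tall in a peat-based growing medium.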

[2] = system: ducksalad; assay: Test B flooded paddy test; assay type: in vivo, Heteranthera limosa; conditions: 250 g ai/ha, Flood; scale of 0 to 100 where 0 is no effect and 100 is complete control
Outline: (§2)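 First, plants reach the 2-leaf stage; next, pots are flooded to 3 cm and compound is delivered into the water; finally, after 13 to 15 greenhouse days at constant depth, injury is graded visually from 0 to 100 against controls.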

[3] = system: sedge, umbrella; assay: Test B flooded paddy test; assay type: in vivo, Cyperus difformis; conditions: 250 g ai/ha, Flood; scale of 0 to 100 where 0 is no effect and 100 is complete control
Outline: as §2

[4] = system: ragweed; assay: Test C pre-/postemergence herbicide test; assay type: in vivo, Ambrosia elatior
Outline: as §1

[5] = system: giant foxtail; assay: Test A pre-/postemergence herbicide test; assay type: in vivo, Setaria faberii; conditions: for Foxtail, Giant plant response rating: Preemergence, visual rating on 0 to 100 scale (0 no effect, 100 complete control)
Outline: (§3)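 Both application timings used compounds in a non-phytotoxic solvent plus surfactant. Pre-emergence: soil sprayed directly after seeding into loam/sand. Post-emergence: foliage of 2–10 cm seedlings (1–2 leaves) sprayed. Injury rated ~10 days later, 0–100.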

[6] = system: wheat (winter wheat); assay: Test C pre-/postemergence herbicide test; assay type: in vivo, Triticum aestivum
Outline: as §1

[7] = system: pigweed; assay: Test A pre-/postemergence herbicide test; assay type: in vivo, Amaranthus retroflexus; conditions: for Pigweed plant response rating: Preemergence, visual rating on 0 to 100 scale (0 no effect, 100 complete control)
Outline: as §3

[8] = system: wheat; assay: Test A pre-/postemergence herbicide test; assay type: in vivo, Triticum aestivum; conditions: for Wheat plant response rating: Preemergence, visual rating on 0 to 100 scale (0 no effect, 100 complete control)
Outline: as §3

[9] = system: oat, wild; assay: Test C pre-/postemergence herbicide test; assay type: in vivo, Avena fatua
Outline: as §1

[10] = system: soybean; assay: Test C pre-/postemergence herbicide test; assay type: in vivo, Glycine max
Outline: as §1

[11] = Postemergence, 31 g ai/ha, scale 0 (no effect) to 100 (complete control)
[12] = Postemergence, 62 g ai/ha, scale 0 to 100 (0 no effect, 100 complete control)
[13] = Postemergence, 125 g ai/ha, scale 0 to 100 (0 no effect, 100 complete control)
[14] = Postemergence, 250 g ai/ha, scale 0 to 100 (0 no effect, 100 complete control)
[15] = Postemergence, 125 g ai/ha, 0 to 100 scale, 0 no effect, 100 complete control
[16] = Postemergence, 500 g ai/ha, 0 to 100 scale (0 no effect, 100 complete control)
[17] = preemergence, 500 g ai/ha, 0 to 100 scale
[18] = Preemergence, 62 g ai/ha, scale 0 to 100
[19] = Preemergence, 125 g ai/ha, scale 0 to 100 (0 no effect, 100 complete control)

## O=C1NCC(c2cc(F)c(F)cc2F)C1C(=O)Nc1cccc(F)c1F (stereo not shown) [Compound 50]
[1]; [11]
  Plant response rating, Nutsedge, Yellow: 0
[1]; [12]
  Plant response rating, Nutsedge, Yellow: 0
[1]; [13]
  Plant response rating, Nutsedge, Yellow: 0
[1]; [14]
  Plant response rating, Nutsedge, Yellow: 5
[2]
  Plant response rating, Ducksalad: 90
[3]
  Plant response rating, Sedge, Umbrella: 55
[4]; [11]
  Plant response rating, Ragweed: 0
[4]; [12]
  Plant response rating, Ragweed: 0
[4]; [13]
  Plant response rating, Ragweed: 0
[4]; [14]
  Plant response rating, Ragweed: 10
[5]; [15]
  Plant response rating, Foxtail, Giant: 80
[5]; [16]
  Plant response rating, Foxtail, Giant: 80
[5]; 125 g ai/ha
  Foxtail, Giant plant response rating: 90
[5]; [17]
  Plant response rating, Foxtail, Giant: 90
[6]; [11]
  Plant response rating, Wheat: 0
[6]; [12]
  Plant response rating, Wheat: 0
[6]; [13]
  Plant response rating, Wheat: 0
[6]; [14]
  Plant response rating, Wheat: 0
[7]; [15]
  Plant response rating, Pigweed: 0
[7]; [16]
  Plant response rating, Pigweed: 0
[7]; 125 g ai/ha
  Pigweed plant response rating: 0
[7]; [17]
  Plant response rating, Pigweed: 0
[8]; [15]
  Plant response rating, Wheat: 0
[8]; [16]
  Plant response rating, Wheat: 0
[8]; 125 g ai/ha
  Wheat plant response rating: 0
[8]; [17]
  Plant response rating, Wheat: 0
[9]; [11]
  Plant response rating, Oat, Wild: 0
[9]; [12]
  Plant response rating, Oat, Wild: 0
[9]; [13]
  Plant response rating, Oat, Wild: 0
[9]; [14]
  Plant response rating, Oat, Wild: 0
[10]; [11]
  Plant response rating, Soybean: 10
[10]; [12]
  Plant response rating, Soybean: 15
[10]; [13]
  Plant response rating, Soybean: 15
[10]; [14]
  Plant response rating, Soybean: 20

## O=C1NCC(c2ccc(F)c(Cl)c2)C1C(=O)Nc1ccccc1F (stereo not shown) [Compound 60]
[1]; [11]
  Plant response rating, Nutsedge, Yellow: 0
[1]; [12]
  Plant response rating, Nutsedge, Yellow: 0
[1]; [13]
  Plant response rating, Nutsedge, Yellow: 5
[1]; [18]
  Plant response rating, Nutsedge, Yellow: 0
[1]; [19]
  Plant response rating, Nutsedge, Yellow: 15
[2]
  Plant response rating, Ducksalad: 90
[3]
  Plant response rating, Sedge, Umbrella: 60
[4]; [11]
  Plant response rating, Ragweed: 10
[4]; [12]
  Plant response rating, Ragweed: 25
[4]; [13]
  Plant response rating, Ragweed: 35
[4]; [18]
  Plant response rating, Ragweed: 10
[4]; [19]
  Plant response rating, Ragweed: 25
[5]; [15]
  Plant response rating, Foxtail, Giant: 80
[5]; [16]
  Plant response rating, Foxtail, Giant: 80
[5]; 125 g ai/ha
  Foxtail, Giant plant response rating: 90
[5]; [17]
  Plant response rating, Foxtail, Giant: 90
[6]; [11]
  Plant response rating, Wheat: 0
[6]; [12]
  Plant response rating, Wheat: 0
[6]; [13]
  Plant response rating, Wheat: 5
[6]; [18]
  Plant response rating, Wheat: 0
[6]; [19]
  Plant response rating, Wheat: 0
[7]; [15]
  Plant response rating, Pigweed: 0
[7]; [16]
  Plant response rating, Pigweed: 0
[7]; 125 g ai/ha
  Pigweed plant response rating: 0
[7]; [17]
  Plant response rating, Pigweed: 0
[8]; [15]
  Plant response rating, Wheat: 0
[8]; [16]
  Plant response rating, Wheat: 50
[8]; 125 g ai/ha
  Wheat plant response rating: 0
[8]; [17]
  Plant response rating, Wheat: 0
[9]; [11]
  Plant response rating, Oat, Wild: 0
[9]; [12]
  Plant response rating, Oat, Wild: 0
[9]; [13]
  Plant response rating, Oat, Wild: 0
[9]; [18]
  Plant response rating, Oat, Wild: 0
[9]; [19]
  Plant response rating, Oat, Wild: 5
[10]; [11]
  Plant response rating, Soybean: 0
[10]; [12]
  Plant response rating, Soybean: 0
[10]; [13]
  Plant response rating, Soybean: 5
[10]; [18]
  Plant response rating, Soybean: 25
[10]; [19]
  Plant response rating, Soybean: 25
